# Counter-ions that a name gives are not always drawn.
# Test system: level of circulating platelets
# Experiment: Effect on thrombopenia induced by carboplatin in the mouse
# Type: in vivo
# Conditions: 150 mg/kg intraperitoneally, balbC mice, at nadir
# From the text: Thrombopenia remains a pathology for which few effective treatments exist apart from the transfusion of platelet concentrates and thrombopoietin (Kaushansky, K., New Eng. J. Med., (1998), 339, pp. 746-754).
# Anticancer chemotherapy constitutes one of the major causes of thrombopenia. One of the agents of chemotherapy, carboplatin, has been widely used to induce thrombopenia in the mouse and to be able thus to characterize the effect of compounds capable of improving the level of platelets, such as, for example, thrombopoietin (Hokom M. M. et al., Blood, (1995), 86, pp. 4486-4492).
# 150 mg/kg of carboplatin were administered intraperitoneally to balbC mice having a weight of 20 g. A blood sample is taken periodically by retro-orbital puncture and the level of circulating platelets is determined by a hematology automated machine (MS9™ from Melet-Schloesing Laboratoires, Cergy-Pontoise, France). […]
# The compounds according to the invention or their solvent (a blank-control) are administered by the oral route for 5 days, the treatment being begun 7 days before the administration of carboplatin. The experiments are carried out on batches comprising 10-12 mice and the results are expressed as a mean±standard error. […]
row,SMILES,reduction in the level of circulating platelets
1,N.N.O=C([O-])C1(C(=O)[O-])CCC1.[Pt+2] [carboplatin],50-60%

# Test system: not given
# Experiment: not given
# Conditions: not given
row,SMILES,melting point
1,COc1cc(C(=O)c2ncc3cc(OCC(=O)O)ccn23)ccc1N (as salt: Na) (hydrate or solvate),302 °C
2,COc1cc(C(=O)c2ncc3cc(C(=O)O)ccn23)ccc1[N+](=O)[O-],> 350 °C
3,COc1cc(C(=O)c2nc(Br)c3ccccn23)ccc1N (as salt: HCl) (hydrate or solvate),204 °C
4,COC(=O)c1cccc(-c2nc(C(=O)c3ccc(N)c(OC)c3)n3ccccc23)c1,166 °C
5,COc1cc(C(=O)c2ncc3c(C(=O)O)cccn23)ccc1N (as salt: Na),259 °C
6,COc1cccc(C(=O)Nc2nc(C(=O)c3ccc(N)c(OC)c3)n3ccccc23)c1 (as salt: HCl) (hydrate or solvate),199 °C
7,COc1cccc(-c2nc(C(=O)c3ccc(N)c(OC)c3)n3ccc(C(=O)O)cc23)c1 (as salt: Na) (hydrate or solvate),307 °C
8,COc1cc(C(=O)c2nc(C#N)c3ccccn23)ccc1N (as salt: HCl),224 °C
9,COc1cc(C(=O)c2ncc3c(C(=O)O)cccn23)ccc1[N+](=O)[O-] (as salt: Na),332 °C
10,COc1cc(C(=O)c2nc(-c3cccc(F)c3)c3ccccn23)ccc1N (as salt: HCl) (hydrate or solvate),228 °C

# Results, then the molecule that gave them:
row,melting point,SMILES
1,244 °C,COc1cc(C(=O)c2ncc3ccc(C(=O)N[C@@H](CO)C(=O)O)cn23)ccc1N (as salt: Na) (hydrate or solvate)
2,268 °C,COc1cc(C(=O)c2ncc3cc(C(=O)O)ccn23)ccc1N (as salt: HCl) (hydrate or solvate)
3,192 °C,COC(=O)[C@@H](C)NC(=O)c1ccn2c(C(=O)c3ccc(N)c(OC)c3)ncc2c1 (as salt: HCl) (hydrate or solvate)
4,179 °C,COC(=O)c1ccc2cnc(C(=O)c3ccc(N)c(OC)c3)n2c1
5,218 °C,COC(=O)c1ccc2cnc(C(=O)c3ccc([N+](=O)[O-])c(OC)c3)n2c1
